# Test results from patent publication US20180340001A1, “Probes for 18F Positron Emission Tomography Imaging” (The Texas A&M University System, priority 2017, published 2018).
# Assays:
# [1] = In vitro stability of [18F]-1 in 1×PBS by radio-HPLC; assay type: physicochemical; conditions: incubation time 3 hours
# Procedure: (§1) The stability of [^18F]-1 was first investigated in phosphate buffer solution (1×PBS). […] The stability of [^18F]-1 was further evaluated in a murine model. The probe [^18F]-1 (0.1 mCi) was injected into female nude mice and static microPET scans were obtained at 3 hours after the injection.
# After HPLC purification, [^18F]-1 was re-injected into HPLC for a radio profile standard. Then, the probe was added with 10×PBS to reconstruct the solution to IX PBS and 0.1 N NaOH to adjust pH to 7, respectively. After 1 hour and 3 hours incubation, a fraction of [^18F]-1 was injected into HPLC. The radio purity was calculated based on the integration of the product peak and other minor peaks.
# [2] = MicroPET/CT imaging, in vivo stability in nude mice; conditions: for free [18F]-fluoride signal / release in vivo: murine model, up to 3 hours post-injection
# Procedure: as §1
# MicroPET imaging were acquired at 3 h post injection. For PET image acquiring, a female nude mouse was injected with 0.1 mCi of [^18F]-1 via the tail vein. At 3 hour post injection, the mouse was anesthetized using isoflurane (2% in oxygen), then placed into imaging chambers equipped with a heated coil to maintain body temperature and gas anesthesia. The static microPET acquisitions were then achieved and reconstructed for analysis.
# [3] = pH 7.5
SMILES,radiochemical purity after incubation [1] [%],"localization in microPET/CT images ([2]; female nude mice, 0.1 mCi via tail vein, static scan 3 h after injection)","bone uptake ([2]; female nude mice, 0.1 mCi, 3 h post-injection)","route of clearance ([2]; female nude mice, 0.1 mCi, microPET/CT 3 h after injection)",free [18F]-fluoride signal / release in vivo [2],free [18F]-fluoride signal / release in vivo ([2]; listed as 18F—PFS-carbene),hydrolytic stability (in words) [3],pseudo-first order rate constant (kobs) of hydrolysis [3] [min⁻¹],free [18F]-fluoride signal / release in vivo ([2]; listed as IMe-PF5),free fluoride signal / release of free fluoride [3]
Cn1cc[n+](C)c1[P-](F)(F)(F)(F)F [[^18F]-1],> 98,obvious localization in the bladder,No bone uptake was observed,cleared through the urinary track,insignificant,not observed,–,–,–,–
"Cn1cc[n+](C)c1[P-](F)(F)(F)(F)c1ccccc1 [Compound 2, (NHC)PF4Ph]",–,–,–,–,–,–,highly water stable,2.3e-05,–,–
"Cn1cc[n+](C)c1[P-](F)(F)(F)(F)F [Compound 1, IMe-PF5]",–,–,–,–,–,–,highly water stable,–,not observed,not observed
